Laboratory results from patent US20160015786A1, “MOBILIZING AGENTS AND USES THEREFOR” (MATER MEDICAL RESEARCH INSTITUTE LIMITED, priority 2013, published 2016).

How the values were obtained:
[1] = test system: colony-forming cells (CFCs); assay: Mobilization of colony-forming cells (CFC/CFU) to blood and spleen, colony assays; type: in vivo, C57BL/6 mice
Protocol: Mobilization of colony-forming cells (CFCs) to the blood and spleen were measured (FIG. 1B).
This was divided into two experiments in which G-CSF was administered for 2 days in one experiment and 4 days in the other (FIG. 2). […] Mobilization of CFCs, phenotypic Lin^−CD41^−Sca1^+Kit^+ HSPCs and Lin^−CD41^− Sca1^+Kit^+CD48^−CD150^+ HSCs were measured in blood and spleens.
Additional HIF-α potentiating agents in the form of PHD inhibitors were tested for their ability to enhance mobilization induced by G-CSF.
At the end of treatment, blood was harvested by cardiac puncture, mice were sacrificed by cervical dislocation and spleens harvested. Femurs were removed, cleaned and the bone marrow was flushed with 1 mL PBS+10% newborn calf serum (NCS).
The number of phenotypic hematopoietic stem and progenitor cells remaining in the bone marrow following treatment was measured by flow cytometry using antibodies specific for lineage markers (CD3, CD5, CD45R/B220, F4/80, Gr1, CD41, Ter119), Sca-1, Kit, CD48 and CD150. Similarly, the number of phenotypic hematopoietic stem cells mobilized into the blood and spleen were measured. Colony assays were also performed on blood and spleen to determine the number of colony forming cells per mL of blood and per spleen. […] Levels of significance for differences were calculated using the Student's t-test.
All procedures were approved by the animal experimentation ethics committee of the University of Queensland. […] Plerixafor (AMD3100 octohydrochloride, Tocris Bioscience, Bristol, UK) was injected intraperitoneally as a single 16 mg/kg dose corresponding to 10 mg/kg of AMD3100 base. Tissues were harvested 1 h after Plerixafor administration. […] Control mice were injected with an equivalent volume of saline. At specified time-points, mice were anesthetized with isoflurane before cardiac puncture to harvest blood. Mice were then euthanized by cervical dislocation and BM and bones harvested.
Optimal concentrations of mouse IL-3, IL-6 and soluble kit ligand were added as conditioned media from stably transfected BHK cell lines. Colonies were counted after 7 days culture at 37° C. in a humidified incubator containing 5% CO2.

[2] = test system: competitive repopulating HSC; assay: Long-term competitive repopulation assay of mobilized blood; type: in vivo, C57BL/6 mice
Protocol: FIGS. 3A and 3B are graphical representations showing that Compound X synergizes with G-CSF and Plerixafor to enhance mobilization of competitive repopulating HSCs. CD45.2^+ mice were mobilized with G-CSF for 2 or 4 days with G-CSF alone (filled circles), with G-CSF in combination with Plerixafor for 1 hr (filled triangles), with Compound X for 3 days (filled squares) or with both Plerixafor, 1 hr, and Compound X, 3 days (filled inverted triangles). Blood (20 μL) was transplanted in lethally irradiated recipients together with 200,000 competitive BM cells from CD45.1^+ mice. Proportion of blood CD45.2+ leukocytes at 16 weeks post-transplantation and number of repopulating units per mL of mobilized blood calculated from donor chimerism at 16 weeks post-transplantation from (3A) 2 days treatment with G-CSF and (3B) 4 days treatment with G-CSF. Each dot is a result from one recipient mouse, bars are average. *: p<0.05; ** 0.001<p<0.01; *** p<0.001.
This synergistic increase in HSC mobilization was further confirmed in long-term competitive repopulation assays following transplantation of 20 μL mobilized blood in competition with 2×10^5 BM cells from congenic donors. […] The number of mobilized long-term competitive repopulating HSC (measured 16 weeks post-transplant) doubled after treatment with 2 days G-CSF+1 h Plerixafor+3 days Compound X (G2P1X3) compared to G-CSF+Plerixafor (G2P1, p<0.05; FIG. 3A). […] The addition of Compound X to G-CSF (G4X3) increased 6-fold the number of mobilized repopulating units compared to G-CSF (G4) alone (P<0.001; FIG. 3B). The combination of Compound X with G-CSF and Plerixafor (G4P1X3) increased mobilization of repopulating units 3-fold compared to G-CSF+Plerixafor (G4P1) alone (P<0.001; FIG. 3B).
The content of mobilized blood samples in competitive repopulating HSC was determined in competitive repopulation assays as previously described (12,17). The day prior to blood harvest, recipient congenic B6.SJL CD45.1^+ female mice were lethally irradiated with 11.0Gy in two split doses 4 hours apart. 50 μL blood samples from 6 mobilized CD45.2^+ C57BL/6 donor mice were pooled within each treatment group and 20 μL blood aliquots were taken from this pool and mixed with 200,000 competitive whole BM cells from untreated B6.SJL CD45.1^+ in a total volume of 200 μL saline, and injected retro-orbitally into each lethally irradiated recipient. Recipients were maintained with antibiotics for the first 3 weeks post-transplant and tail bled 8, 12 and 16 weeks post-transplant to determine CD45.2 (test donor blood) versus CD45.1 (competitive whole BM cells) chimerism in myeloid, B and T lineages by flow cytometry using CD45.1-PE, CD45.2-allophycocyanin (APC), CD3-FITC, B220-allophycocyanin (APC)-cyanin (CY) 7, CD11b-PECY7, Ly6G-Pacific Blue. Content in repopulating units (RU) was calculated as previously described (18-19).

[3] = Compound X added to 2 days G-CSF plus Plerixafor, p<0.005

O=C(O)CNC(=O)c1ncc2cc(Sc3ccccc3)ccc2c1O [Compound X, [(4-Hydroxy-7-phenylsulfanyl-isoquinoline-3-carbonyl)-amino]-acetic acid]
mobilization of HSPC to the spleen ([1]; 1 hr following Plerixafor treatment with or without Compound X, FIG. 1D): no significant mobilization | day of Compound X administration at which CFC mobilization into blood and spleen peaks ([1]; Compound X 1-4 days, G-CSF for the last 2 days, FIG. 1C): 3 days | further increase of CFC/mL mobilized into blood [1, 3]: 2.5 fold | further increase of CFC/spleen [1, 3]: 4 fold | boost of CFC/mL blood ([1]; Compound X added to 4 days G-CSF plus Plerixafor, p<0.005): 2.5 fold | CFC mobilization into the blood ([1]; Compound X alone for 3 days): did not induce | increase in CFCs mobilized per mL blood ([1]; Example 1: Compound X 3 days added to G-CSF, following 2 days of G-CSF, FIG. 1B): 2.5 fold | increase of CFCs mobilized to the spleen ([1]; Example 1: Compound X 3 days added to G-CSF, following 3 days of G-CSF, FIG. 1B): 6 fold | increase in the number of CFC/mL blood ([1]; Example 3: 4 days G-CSF, addition of Compound X, P<0.001): 4 fold | number of CFC/spleen ([1]; Example 3: 4 days G-CSF, addition of Compound X, P<0.01): further significant increase | mobilizing effect ([1]; Example 3: Compound X alone (data not shown)): no mobilizing effect | CFC mobilized to the blood versus G-CSF alone ([1]; Example 3: G-CSF 250 μg/kg/day 2 days + Compound X 20 mg/kg/day 3 days (G+X3), p<0.001, FIG. 2B): 4 fold | CFC mobilized to the spleen versus G-CSF alone ([1]; Example 3: G-CSF 2 days + Compound X 20 mg/kg/day 3 days (G+X3), p<0.001, FIG. 2B): 47 fold | number of CFC mobilized per mL blood in response to Plerixafor ([1]; Plerixafor 1 h plus 2 to 3 day treatment with Compound X, FIG. 1D): significantly increased | number of mobilized long-term competitive repopulating HSC versus G-CSF+Plerixafor ([2]; 16 weeks post-transplant, G2P1X3 vs G2P1, p<0.05, FIG. 3A): doubled | competitive repopulating HSC mobilized (CD45.2/CD45.1 chimerism) versus G-CSF+Plerixafor ([2]; 2 days G-CSF+Plerixafor+Compound X (G2P1X3) vs G2P1, p<0.01): 6 fold | number of long-term repopulating HSC per mL of blood ([2]; Compound X in combination with G-CSF and Plerixafor (discussion)): tripled | increase in mobilization of repopulating units versus G-CSF+Plerixafor ([2]; G4P1X3 vs G4P1, P<0.001, FIG. 3B): 3 fold | increase in number of mobilized repopulating units versus G-CSF alone ([2]; G-CSF 4 days + Compound X (G4X3) vs G4, P<0.001, FIG. 3B): 6 fold
